{
  "source": "patent US9540377B2",
  "about": "“2,6,7,8 substituted purines as HDM2 inhibitors” (Merck Sharp & Dohme Corp., priority 2013, dated 2017)",
  "note": "pIC50: −log10 of the molar value.",
  "data": [
    {"biological_target": "HDM2 (truncated, residues 17 to 125, containing p53 binding surface) (Homo sapiens (Human), UniProt Q00987)", "sequence (Q00987 17-125)": "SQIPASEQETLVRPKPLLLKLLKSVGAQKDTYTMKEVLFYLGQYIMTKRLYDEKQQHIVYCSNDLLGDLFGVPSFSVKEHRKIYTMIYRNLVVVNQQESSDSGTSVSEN", "experiment": "HDM2 FRET assay (inhibition of binding of FITC labeled p53-site peptide to HDM2)", "conditions": "Table 16", "excerpt": "(§1) IC50 DETERMINATIONS: Dose-response curves were plotted from the inhibition data, from 10 point serial dilutions of inhibitory compounds. Concentration of compound was plotted against em520/Cem495 ratio signal. To generate IC50 values, the dose-response curves were fitted to a standard sigmoidal curve and IC50 values were derived by nonlinear regression analysis.", "values": [
      {"smiles": "C[C@H]1CC[C@H](Cn2c(N3CCOC4CCCCC43)nc3nc(-c4noc(=O)[nH]4)nc(-c4cccc(Cl)c4)c32)CC1", "note": "(single isomer, unassigned) [Example 16.77, 3-(6-(3-chlorophenyl)-7-[(trans-4-methylcyclohexyl)methyl]-8-(octahydro-4H-1,4-benzoxazin-4-yl)-7H-purin-2-yl]-1,2,4-oxadiazol-5(4H)-one]", "pIC50": 7.53},
      {"smiles": "C[C@H]1CC[C@H](Cn2c(N3CCCC4COCCC43)nc3nc(-c4n[nH]c(=O)o4)nc(-c4cncc(Cl)c4)c32)CC1", "note": "(single isomer, unassigned) [Example 16.122, 5-{6-(5-chloropyridin-3-yl)-8-(hexahydro-2H-pyrano[4,3-b]pyridin-1(5H)-yl)-7-[(trans-4-methylcyclohexyl)methyl]-7H-purin-2-yl}-1,3,4-oxadiazol-2(3H)-one]", "pIC50": 6.69}
    ]},
    {"biological_target": "HDM2 (truncated, residues 17 to 125, containing p53 binding surface) (Homo sapiens (Human), UniProt Q00987)", "experiment": "HDM2 FRET assay (inhibition of binding of FITC labeled p53-site peptide to HDM2)", "conditions": "Table 18", "excerpt": "as §1", "values": [
      {"smiles": "CC([C@H]1CC[C@H](C)CC1)n1c(N2CCOC3CCCC32)nc2nc(-c3n[nH]c(=O)o3)nc(-c3cccc(Cl)c3)c21", "note": "(single isomer, unassigned) [Example 18.39, 5-{6-(3-chlorophenyl)-8-(hexahydrocyclopenta[b][1,4]oxazin-4(4aH)-yl)-7-[1-(trans-4-methylcyclohexyl)ethyl]-7H-purin-2-yl}-1,3,4-oxadiazol-2(3H)-one]", "pIC50": 8.43}
    ]},
    {"biological_target": "HDM2 (truncated, residues 17 to 125, containing p53 binding surface) (Homo sapiens (Human), UniProt Q00987)", "experiment": "HDM2 FRET assay (inhibition of binding of FITC labeled p53-site peptide to HDM2)", "conditions": "Table 23", "excerpt": "as §1", "values": [
      {"smiles": "COC(C)(c1nc2nc(-c3noc(=O)[nH]3)nc(-c3cncc(Cl)c3)c2n1C[C@H]1CC[C@H](C)CC1)C1CCCC1", "note": "(mixture of isomers) [Example 23.71, 3-{6-(5-chloropyridin-3-yl)-8-(1-cyclopentyl-1-methoxyethyl)-7-[(trans-4-methylcyclohexyl)methyl]-7H-purin-2-yl}-1,2,4-oxadiazol-5(4H)-one]", "pIC50": 8.89},
      {"smiles": "COCC(C)(OC)c1nc2nc(-c3noc(=O)[nH]3)nc(-c3cncc(Cl)c3)c2n1C[C@H]1CC[C@H](C)CC1", "note": "(mixture of isomers) [Example 23.107, 3-{6-(5-chloropyridin-3-yl)-8-(1,2-dimethoxy-1-methylethyl)-7-[(trans-4-methylcyclohexyl)methyl]-7H-purin-2-yl}-1,2,4-oxadiazol-5(4H)-one]", "pIC50": 8.27},
      {"smiles": "COC(C)(c1c(F)cccc1F)c1nc2nc(-c3noc(=O)[nH]3)nc(-c3cncc(Cl)c3)c2n1C[C@H]1CC[C@H](C)CC1", "note": "(single isomer, unassigned) [Example 23.93, 3-{6-(5-chloropyridin-3-yl)-8-[1-(2,6-difluorophenyl)-1-methoxyethyl]-7-[(trans-4-methylcyclohexyl)methyl]-7H-purin-2-yl}-1,2,4-oxadiazol-5(4H)-one]", "pIC50": 9.34},
      {"smiles": "CC(F)(c1ncccc1F)c1nc2nc(-c3noc(=O)[nH]3)nc(-c3cncc(Cl)c3)c2n1C[C@H]1CC[C@H](C)CC1", "note": "(single isomer, unassigned) [Example 23.98, 3-{6-(5-chloropyridin-3-yl)-8-[1-fluoro-1-(3-fluoropyridin-2-yl)ethyl]-7-[(trans-4-methylcyclohexyl)methyl]-7H-purin-2-yl}-1,2,4-oxadiazol-5(4H)-one]", "pIC50": 8.01},
      {"smiles": "CC(F)(c1ccccn1)c1nc2nc(-c3noc(=O)[nH]3)nc(-c3cccc(Cl)c3)c2n1C[C@H]1CC[C@H](C)CC1", "note": "(single isomer, unassigned) [Example 23.30, 3-{6-(3-chlorophenyl)-8-(1-fluoro-1-pyridin-2-ylethyl)-7-[(trans-4-methylcyclohexyl)methyl]-7H-purin-2-yl}-1,2,4-oxadiazol-5(4H)-one]", "pIC50": 8.17},
      {"smiles": "CC(F)(c1ccccc1F)c1nc2nc(-c3noc(=O)[nH]3)nc(-c3cncc(Cl)c3)c2n1C[C@H]1CC[C@H](C)CC1", "note": "(single isomer, unassigned) [Example 23.34, 3-{6-(5-chloropyridin-3-yl)-8-[1-fluoro-1-(2-fluorophenyl)ethyl]-7-[(trans-4-methylcyclohexyl)methyl]-7H-purin-2-yl}-1,2,4-oxadiazol-5(4H)-one]", "pIC50": 8.03}
    ]}
  ]
}
